Results published in PubChem BioAssay (NCI).
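Interpolation was linear, between the two tested concentrations surrounding the appropriate level; five concentrations were tested over 48 hours in 96-well plates. GI50 is the concentration that inhibits growth by half. Definition used: TGI = concentration required for complete inhibition of growth.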

What was measured:
Experiment in all cases: NCI-60 cell line screen, 48 h
[1] = test system: SNB-19 CNS
[2] = test system: HS 578T breast
[3] = test system: NCI-H23 lung
[4] = test system: T-47D breast
[5] = test system: HCC-2998 colon
[6] = test system: SK-OV-3 ovarian
[7] = test system: HOP-62 NSCLC
[8] = test system: SK-MEL-28 melanoma
[9] = test system: MOLT-4 leukemia
[10] = test system: RXF 393 renal

Cc1ccc2c(c1)CN(C(=O)CCC(=O)OCc1ccccc1)c1ccc(C)cc1CN2C(=O)CCC(=O)OCc1ccccc1
TGI [1]: > 100 µM | TGI [2]: > 100 µM | TGI [3]: > 100 µM | TGI [4]: > 100 µM | TGI [5]: > 100 µM | TGI [6]: > 100 µM | TGI [7]: > 100 µM | TGI [8]: > 100 µM | TGI [9]: > 100 µM | TGI [10]: > 100 µM

Cc1ccc(C(=O)Nc2ccc(CN3CCN(C)CC3)c(C(F)(F)F)c2)cc1C#Cc1cnc(N)c2ccccc12
GI50 [1]: 0.769 µM | TGI [1]: 1.47 µM | GI50 [2]: 0.647 µM | TGI [2]: 2.07 µM | GI50 [3]: 0.799 µM | TGI [3]: 1.76 µM | GI50 [4]: 0.861 µM | TGI [4]: 2.3 µM | GI50 [5]: 0.738 µM | TGI [5]: 1.56 µM | GI50 [6]: 0.684 µM | TGI [6]: 7.9 µM | GI50 [7]: 0.849 µM | TGI [7]: 2.13 µM | GI50 [8]: 0.479 µM | TGI [8]: 1.15 µM | GI50 [9]: 0.224 µM | TGI [9]: 1.28 µM | GI50 [10]: 0.285 µM | TGI [10]: 1.06 µM

Fc1ccc(-c2nn3ncccc3c2-c2ccnc(Nc3ccc4c(c3)OCCO4)n2)cc1
GI50 [1]: 19.4 µM | TGI [1]: > 25 µM | GI50 [2]: 2.15 µM | TGI [2]: > 23.2 µM | GI50 [3]: 6.8 µM | TGI [3]: > 25 µM | GI50 [4]: 3.95 µM | TGI [4]: 17.9 µM | GI50 [5]: 4.81 µM | TGI [5]: 10.1 µM | GI50 [6]: 1.23 µM | TGI [6]: > 25 µM | GI50 [7]: 15.2 µM | TGI [7]: > 25 µM | GI50 [8]: 8.64 µM | TGI [8]: > 25 µM | GI50 [9]: 4.8 µM | TGI [9]: > 22.4 µM | GI50 [10]: 1.07 µM | TGI [10]: 7.22 µM

COc1cc2c3c(n(CCNCCCNCCn4c5c(c6cc(OC)c(OC)cc6c4=O)C(=O)c4ccccc4-5)c(=O)c2cc1OC)-c1ccccc1C3=O
GI50 [1]: 0.162 µM | TGI [1]: 4.26 µM | GI50 [2]: > 49 µM | TGI [2]: > 100 µM | GI50 [3]: 1.2 µM | TGI [3]: 17 µM | GI50 [4]: 2.32 µM | TGI [4]: > 34.7 µM | GI50 [5]: 0.0685 µM | TGI [5]: 0.978 µM | GI50 [6]: 7.02 µM | TGI [6]: 32.2 µM | GI50 [7]: 0.0614 µM | TGI [7]: 1.9 µM | GI50 [8]: 1.78 µM | TGI [8]: 5.07 µM | TGI [9]: 0.0432 µM | GI50 [10]: 1.14 µM | TGI [10]: 12.1 µM

COc1cc2c3c(n(C)c(=O)c2cc1OC)-c1cc2c(cc1/C3=C\CNCCCN)OCO2
GI50 [1]: 0.261 µM | TGI [1]: 10.4 µM | GI50 [2]: 1.28 µM | TGI [2]: 6.06 µM | GI50 [3]: 0.437 µM | TGI [3]: 3.15 µM | TGI [4]: 3.02 µM | GI50 [5]: 0.501 µM | TGI [5]: 1.99 µM | GI50 [6]: 1.26 µM | TGI [6]: > 88.2 µM | GI50 [7]: 0.625 µM | TGI [7]: 10.9 µM | GI50 [8]: 2.14 µM | TGI [8]: 39.6 µM | GI50 [9]: 0.0118 µM | TGI [9]: 0.0502 µM | GI50 [10]: 1.69 µM | TGI [10]: 7.1 µM

Nc1ncn(C2CC(O)C(CO)O2)c(=O)n1 (configuration not stated)
TGI [1]: > 349 µM | TGI [2]: 23.5 µM | TGI [3]: > 375 µM | TGI [4]: > 299 µM | TGI [5]: > 375 µM | TGI [6]: 182 µM | TGI [7]: > 319 µM | TGI [8]: > 324 µM | TGI [9]: > 375 µM | TGI [10]: 350 µM

CS(=O)(=O)c1cc(=O)c2ccccc2s1
TGI [1]: 36.5 µM | TGI [2]: 68.8 µM | TGI [3]: 24.7 µM | TGI [4]: 9.41 µM | TGI [5]: 30.5 µM | TGI [6]: 32.3 µM | TGI [7]: 41.3 µM | TGI [8]: 7.5 µM | TGI [9]: 3.92 µM | TGI [10]: 9.05 µM

C/C=C(\C)CC/C=C/CO[Si](C)(C)C(C)(C)C
TGI [1]: > 100 µM | TGI [2]: > 100 µM | TGI [3]: > 100 µM | TGI [4]: > 100 µM | TGI [5]: > 100 µM | TGI [6]: > 100 µM | TGI [7]: > 100 µM | TGI [8]: > 100 µM | TGI [9]: 81.3 µM | TGI [10]: > 100 µM

COC(=O)[C@H](Cc1c[nH]c2ccccc12)NC(=O)[C@@H](OC)[C@@H]1Cc2cc3cc(OC4CC(OC5CC(O)C(O)C(C)O5)C(O)C(C)O4)c(C)c(O)c3c(O)c2C(=O)[C@H]1OC1CC(OC2CC(OC3CC(C)(O)C(O)C(C)O3)C(O)C(C)O2)C(O)C(C)O1 (some centres not stated)
GI50 [1]: 0.00777 µM | TGI [1]: > 16.5 µM | GI50 [2]: 0.00566 µM | TGI [2]: 0.157 µM | GI50 [3]: 0.00614 µM | TGI [3]: 0.0506 µM | GI50 [4]: 0.0075 µM | TGI [4]: > 9.76 µM | GI50 [5]: 0.00659 µM | TGI [5]: 0.0382 µM | GI50 [6]: 0.0116 µM | TGI [6]: > 16.5 µM | GI50 [7]: 0.00771 µM | TGI [7]: 5.53 µM | GI50 [8]: 0.00424 µM | TGI [8]: 0.0193 µM | GI50 [9]: 0.00654 µM | GI50 [10]: 0.00833 µM | TGI [10]: 0.0243 µM

CCOC(=O)c1c(C)nc2c(c1N)/C(=C/c1ccc(OC)cc1)C(=O)N2Cc1ccc(F)cc1
GI50 [1]: 0.532 µM | TGI [1]: 1.87 µM | GI50 [2]: 0.479 µM | TGI [2]: > 100 µM | GI50 [3]: 0.262 µM | TGI [3]: 1.03 µM | GI50 [4]: 0.148 µM | TGI [4]: 1.91 µM | GI50 [5]: 0.255 µM | TGI [5]: 0.762 µM | GI50 [6]: 0.692 µM | TGI [6]: 6.85 µM | GI50 [7]: 0.497 µM | TGI [7]: 2.17 µM | GI50 [8]: 0.183 µM | TGI [8]: 0.374 µM | GI50 [9]: 0.221 µM | TGI [9]: 0.745 µM | GI50 [10]: 0.14 µM | TGI [10]: 0.329 µM

CC[CH2][Sn]([Cl])([Cl])[CH2]CC.Oc1ccccc1C=NCCN=Cc1ccccc1O
GI50 [1]: 12.1 µM | TGI [1]: 25 µM | GI50 [2]: 2.33 µM | TGI [2]: 9.09 µM | GI50 [3]: 6.62 µM | TGI [3]: 20.5 µM | GI50 [4]: 1.09 µM | TGI [4]: 2.6 µM | GI50 [5]: 11.1 µM | TGI [5]: 23.8 µM | GI50 [6]: 17.2 µM | TGI [6]: 35.1 µM | GI50 [7]: 12.3 µM | TGI [7]: 25.4 µM | GI50 [8]: 8.7 µM | TGI [8]: 21.6 µM | GI50 [9]: 4.88 µM | TGI [9]: > 100 µM | GI50 [10]: 2.41 µM | TGI [10]: 8.11 µM
